In patent US9604961B2, “Histone demethylase inhibitors” (Celgene Quanticel Research, Inc., priority 2012, dated 2017):
Where two headings read alike, the source gives them in different places.

What was measured:
Jarid1A = Jarid1A (Homo sapiens (Human), UniProt P29375); experiment: Jarid1A in vitro enzyme inhibition assay (TR-FRET); type: biochemical
Description: The enzymatic assay of Jarid1A activity is based upon Time Resolved-Fluorescence Resonance Energy Transfer (TR-FRET) detection.

Jarid1B = Jarid1B (Homo sapiens (Human), UniProt Q9UGL1); experiment: Jarid1B in vitro enzyme inhibition assay (TR-FRET); type: biochemical
JMJD2C = JMJD2C (Homo sapiens (Human), UniProt Q9H3R0); experiment: JMJD2C in vitro enzyme inhibition assay (TR-FRET); type: biochemical
FBXL10 = FBXL10 (Homo sapiens (Human), UniProt Q8NHM5); experiment: FBXL10 in vitro enzyme inhibition assay (AlphaScreen); type: biochemical
Experimental: Reaction product was determined quantitatively by AlphaScreen detection after the addition of detection reagents anti-H3K36me1 antibody, AlphaScreen® Streptavidin-coated Donor beads, and AlphaScreen® Protein A Acceptor beads in 50 mM HEPES, pH7.3, 10 mM NaCl, 0.005% Brij35, 5 mM EDTA, 2 mg/ml BSA to final 10 μg/ml beads.
Plates were incubated at room temperature for 40 minutes, followed by addition of 3 μl of 50 μg/ml AlphaScreen® Streptavidin-coated Donor beads and AlphaScreen® Protein A Acceptor beads in 50 mM HEPES, pH7.3, 10 mM NaCl, 0.005% Brij35, 5 mM EDTA, 2 mg/ml BSA. Plates were read by EnVisionMultilabel Reader in AlphaScreen mode after a minimum of 2 hour or up to overnight incubation at room temperature. The AlphaScreen signal for each well was used to determine inhibition constant (IC50).

JMJD2A = JMJD2A (Homo sapiens (Human), UniProt O75164); experiment: JMJD2A in vitro enzyme inhibition assay (TR-FRET); details: read-out: JMJD2A IC50
Experimental: This assay determines the ability of a test compound to inhibit Jarid1A, Jarid1B, JMJD2C, and JMJD2A demethylase activity.
Reaction product was determined quantitatively by TR-FRET after the addition of detection reagent Phycolink Streptavidin-allophycocyanin (Prozyme) and Europium-anti-di-methylated histone H3 lysine 9 (H3K9me2) antibody (PerkinElmer) in the presence of 5 mM EDTA in LANCE detection buffer (PerkinElmer) at a final concentration of 50 nM and 1 nM, respectively.
The assay reaction was initiated by the following: 2 μl of the mixture of 900 nM H3K9me3-biotin labeled peptide and 6 μM alpha-ketoglutaric acid with 2 μl of 11-point serial diluted inhibitor in 3% DMSO were added to each well of plate, followed by the addition of 2 μl of 6 nM JMJD2A to initiate the reaction. The reaction mixture was incubated at room temperature for 30 minutes, and terminated by the addition of 6 μl of 5 mM EDTA in LANCE detection buffer containing 100 nM Phycolink Streptavidin-allophycocyanin and 2 nM Europium-anti-H3K9me2 antibody.

KDM5A/B = experiment: In vitro cell-based assay: quantitative immuno-blotting of tri-methyl H3K4 in ZR-75-1 breast cancer cells; details: 72 hours exposure, read-out: Cellular IC50
Description: This quantitative immuno-blotting assay measures the amount tri-methylated histone H3 at amino acid Lysine number 4, a specific substrate […] of the direct enzymatic activity of the histone demethylases KDM5A and KDM5B from extracts of the ZR-75-1 breast cancer cell line.
This assay is a fluorometric immunoassay for the quantification of tri-methyl H3K4 extracted from cells treated with test compound and is used as a measure of the cellular inhibition of KDM5A/B.
ZR-75-1 (PTEN null, ER+) breast cancer cells numbering 50,000 (ATCC) were seeded into each well of a 96-well tissue culture treated plate and then exposed to an 11 point dilution of test compound with final concentration ranges of test compound ranging from […] to 10 nM. […] Extracts were prepared containing all of the cellular histone material using detergent based lysis and sonication methods. These lysates were subsequently normalized for total protein content using a colorimetric bicinchonic acid assay (MicroBCA Pierce/Thermo Scientific). Normalized cell extracts were then subjected to typical immuno-blotting procedures using NuPage reagents (Life Technologies). Electrophoretically separated histones were then transferred and immobilized using polyvinylidene difluoride membrane (Immobilon-FL Millipore). The amount of tri-methylated lysine 4 of histone H3 was detected using an antibody specific to the tri-methylated state (Cell Signaling Technologies) and quantified on an infrared imager using a densitometry software package (Odyssey CLx, Image Studio, Li-Cor). This background subtracted densitometry value was reported as a ration of the GAPDH amount for that sample and then calculated as a percent of the DMSO treated sample. The software package XL-fit (IDBS) was then used to calculate a relative IC50 value for the dilution series of a given test compound according to the equation: fit=(D+((Vmax*(x^n))/((x^n)+(Km^n)))).

Jarid1A, sequence (P29375 1-1090): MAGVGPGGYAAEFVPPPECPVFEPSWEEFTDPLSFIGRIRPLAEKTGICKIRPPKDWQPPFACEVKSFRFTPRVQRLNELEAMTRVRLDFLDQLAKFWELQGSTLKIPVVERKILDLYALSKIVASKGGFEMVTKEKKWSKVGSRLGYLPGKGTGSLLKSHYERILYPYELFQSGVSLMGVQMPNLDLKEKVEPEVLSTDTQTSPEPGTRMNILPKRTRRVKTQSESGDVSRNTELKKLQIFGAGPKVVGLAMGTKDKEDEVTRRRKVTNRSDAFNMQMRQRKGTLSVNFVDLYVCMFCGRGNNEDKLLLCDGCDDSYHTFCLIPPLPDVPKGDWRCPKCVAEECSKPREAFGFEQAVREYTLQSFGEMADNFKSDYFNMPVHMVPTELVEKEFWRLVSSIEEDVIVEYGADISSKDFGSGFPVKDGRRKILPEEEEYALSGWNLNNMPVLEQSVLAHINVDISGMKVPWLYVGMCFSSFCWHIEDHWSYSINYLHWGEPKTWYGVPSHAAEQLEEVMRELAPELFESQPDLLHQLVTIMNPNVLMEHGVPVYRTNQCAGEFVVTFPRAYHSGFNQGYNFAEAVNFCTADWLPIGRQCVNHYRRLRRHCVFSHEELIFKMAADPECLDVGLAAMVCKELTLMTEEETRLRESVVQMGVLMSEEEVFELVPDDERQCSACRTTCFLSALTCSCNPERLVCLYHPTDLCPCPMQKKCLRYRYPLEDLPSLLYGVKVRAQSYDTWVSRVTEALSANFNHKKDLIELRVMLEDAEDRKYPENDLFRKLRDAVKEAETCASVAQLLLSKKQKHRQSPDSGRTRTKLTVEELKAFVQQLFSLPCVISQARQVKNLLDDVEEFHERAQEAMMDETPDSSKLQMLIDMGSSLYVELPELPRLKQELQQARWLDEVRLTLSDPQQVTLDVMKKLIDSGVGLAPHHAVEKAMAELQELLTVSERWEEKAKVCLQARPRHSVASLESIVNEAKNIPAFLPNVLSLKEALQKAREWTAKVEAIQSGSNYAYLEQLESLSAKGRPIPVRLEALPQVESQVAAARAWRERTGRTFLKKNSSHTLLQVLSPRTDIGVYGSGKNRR
JMJD2C, sequence (Q9H3R0 2-372): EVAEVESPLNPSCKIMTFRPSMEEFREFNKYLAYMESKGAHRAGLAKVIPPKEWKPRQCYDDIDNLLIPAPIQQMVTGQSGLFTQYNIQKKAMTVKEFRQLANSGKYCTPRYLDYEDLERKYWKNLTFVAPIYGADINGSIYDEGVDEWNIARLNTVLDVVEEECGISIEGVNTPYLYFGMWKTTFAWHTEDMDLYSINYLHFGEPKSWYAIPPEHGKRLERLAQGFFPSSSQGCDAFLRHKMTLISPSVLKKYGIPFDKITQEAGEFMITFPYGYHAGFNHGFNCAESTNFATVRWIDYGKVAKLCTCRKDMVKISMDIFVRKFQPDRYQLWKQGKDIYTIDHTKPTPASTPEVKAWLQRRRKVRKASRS
JMJD2A, sequence (O75164 1-350): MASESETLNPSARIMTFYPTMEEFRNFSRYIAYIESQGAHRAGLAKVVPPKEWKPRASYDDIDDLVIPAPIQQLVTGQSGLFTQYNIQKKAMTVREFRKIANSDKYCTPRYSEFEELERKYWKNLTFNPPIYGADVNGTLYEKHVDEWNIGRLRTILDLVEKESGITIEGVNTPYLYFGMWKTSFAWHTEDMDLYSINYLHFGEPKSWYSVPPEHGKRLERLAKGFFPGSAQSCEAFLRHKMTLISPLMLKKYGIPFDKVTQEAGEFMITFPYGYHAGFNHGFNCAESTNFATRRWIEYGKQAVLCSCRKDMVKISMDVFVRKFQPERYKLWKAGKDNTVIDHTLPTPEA
Jarid1B, sequence (Q9UGL1 2-751): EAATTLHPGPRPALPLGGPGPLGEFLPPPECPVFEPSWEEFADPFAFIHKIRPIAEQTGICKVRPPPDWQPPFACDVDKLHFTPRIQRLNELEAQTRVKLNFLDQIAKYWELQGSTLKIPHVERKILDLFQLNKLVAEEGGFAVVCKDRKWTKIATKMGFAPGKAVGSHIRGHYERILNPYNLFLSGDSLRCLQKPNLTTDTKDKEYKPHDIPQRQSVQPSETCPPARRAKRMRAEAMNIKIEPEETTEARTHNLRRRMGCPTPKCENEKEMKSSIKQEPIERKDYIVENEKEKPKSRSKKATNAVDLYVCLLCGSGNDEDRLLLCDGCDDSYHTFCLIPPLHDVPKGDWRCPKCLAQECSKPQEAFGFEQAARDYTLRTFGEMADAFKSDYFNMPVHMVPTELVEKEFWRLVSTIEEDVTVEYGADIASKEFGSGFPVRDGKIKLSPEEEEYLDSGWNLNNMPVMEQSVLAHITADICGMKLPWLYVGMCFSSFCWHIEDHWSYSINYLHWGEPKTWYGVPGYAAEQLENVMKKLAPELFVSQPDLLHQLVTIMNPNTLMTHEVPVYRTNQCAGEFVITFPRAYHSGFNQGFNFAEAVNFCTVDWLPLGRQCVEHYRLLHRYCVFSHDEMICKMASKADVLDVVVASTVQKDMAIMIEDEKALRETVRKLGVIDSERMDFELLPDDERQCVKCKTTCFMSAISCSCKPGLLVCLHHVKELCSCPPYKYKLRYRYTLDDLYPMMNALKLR
FBXL10, sequence (Q8NHM5 1-650): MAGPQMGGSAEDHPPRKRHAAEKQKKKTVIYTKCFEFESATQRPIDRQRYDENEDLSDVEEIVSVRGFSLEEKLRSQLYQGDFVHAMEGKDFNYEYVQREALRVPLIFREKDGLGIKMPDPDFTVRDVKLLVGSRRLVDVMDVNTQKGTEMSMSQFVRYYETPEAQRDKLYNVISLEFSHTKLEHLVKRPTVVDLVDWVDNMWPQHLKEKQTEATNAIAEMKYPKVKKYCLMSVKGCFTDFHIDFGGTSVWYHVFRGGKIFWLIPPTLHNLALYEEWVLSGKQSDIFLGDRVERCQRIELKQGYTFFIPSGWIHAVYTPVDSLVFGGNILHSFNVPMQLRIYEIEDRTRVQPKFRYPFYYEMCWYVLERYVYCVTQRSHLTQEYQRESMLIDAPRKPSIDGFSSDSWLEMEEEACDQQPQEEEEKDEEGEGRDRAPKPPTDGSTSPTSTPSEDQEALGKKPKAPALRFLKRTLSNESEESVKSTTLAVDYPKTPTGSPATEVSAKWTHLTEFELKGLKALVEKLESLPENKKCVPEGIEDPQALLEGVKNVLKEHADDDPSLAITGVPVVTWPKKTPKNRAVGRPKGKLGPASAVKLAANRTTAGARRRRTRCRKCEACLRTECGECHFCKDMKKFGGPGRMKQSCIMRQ

Molecule	IC50 (Jarid1A) [nM]	IC50 (Jarid1B) [nM]	IC50 (JMJD2C) [nM]	IC50 (KDM5A/B; Homo sapiens) [nM]	IC50 (FBXL10) [nM]	IC50 (JMJD2A) [nM]	IC50 (KDM5A/B) [nM]
O=C(O)c1ccnc(-n2nc(C3CC3)cc2O)c1 [Example 2, 2-(3-cyclopropyl-5-hydroxy-1H-pyrazol-1-yl)isonicotinic acid]	< 100	< 100	100 to 1000	–	< 100	100 to 1000	–
O=C(O)c1ccnc(-n2nccc2OCc2ccc(Br)cc2)c1 [Example 57, 2-{5-[(4-bromobenzyl)oxy]-1H-pyrazol-1-yl}pyridine-4-carboxylic acid]	< 100	< 100	< 100	100 to 1000	–	–	–
O=C(O)c1ccnc(-n2nccc2OCc2cccc(Br)c2)c1 [Example 72, 2-{5-[(3-bromobenzyl)oxy]-1H-pyrazol-1-yl}pyridine-4-carboxylic acid]	< 100	< 100	< 100	1000 to 10000	–	–	–
O=C(O)c1ccnc(-n2nccc2OCc2ccc(Cl)c(Cl)c2)c1 [Example 87, 2-[5-[(3,4-dichlorophenyl)methoxy]pyrazol-1-yl]pyridine-4-carboxylic acid]	< 100	< 100	100 to 1000	100 to 1000	–	–	–
CCCCOc1cc(Cl)ccc1COc1ccnn1-c1cc(C(=O)O)ccn1 [Example 111, 2-[5-[(2-butoxy-4-chlorophenyl)methoxy]pyrazol-1-yl]pyridine-4-carboxylic acid]	100 to 1000	100 to 1000	1000 to 10000	–	1000 to 10000	1000 to 10000	–
CC(C)COc1cc(Cl)ccc1COc1ccnn1-c1cc(C(=O)O)ccn1 [Example 112, 2-[5-[[4-chloro-2-(2-methylpropoxy)phenyl]methoxy]pyrazol-1-yl]pyridine-4-carboxylic acid]	100 to 1000	100 to 1000	1000 to 10000	–	1000 to 10000	1000 to 10000	–
CCOc1cc(Cl)ccc1COc1ccnn1-c1cc(C(=O)O)ccn1 [Example 115, 2-[5-[(4-chloro-2-ethoxyphenyl)methoxy]pyrazol-1-yl]pyridine-4-carboxylic acid]	< 100	< 100	100 to 1000	100 to 1000	–	–	–
O=C(O)c1ccnc(-n2nccc2OCc2ccc(Cl)cc2OCc2ccc(F)cc2)c1 [Example 117, 2-[5-[[4-chloro-2-[(4-fluorophenyl)methoxy]phenyl]methoxy]pyrazol-1-yl]pyridine-4-carboxylic acid]	100 to 1000	100 to 1000	1000 to 10000	1000 to 10000	1000 to 10000	1000 to 10000	–
O=C(O)c1ccnc(-n2nccc2OCc2ccc(F)cc2OCc2ccc(F)cc2)c1 [Example 118, 2-[5-[[4-fluoro-2-[(4-fluorophenyl)methoxy]phenyl]methoxy]pyrazol-1-yl]pyridine-4-carboxylic acid]	< 100	< 100	100 to 1000	–	1000 to 10000	100 to 1000	–
CCc1cc(Cl)ccc1COc1ccnn1-c1cc(C(=O)O)ccn1 [Example 127, 2-[5-[(4-chloro-2-ethylphenyl)methoxy]pyrazol-1-yl]pyridine-4-carboxylic acid]	100 to 1000	100 to 1000	1000 to 10000	1000 to 10000	–	–	–
Cc1ccc(COc2ccnn2-c2cc(C(=O)O)ccn2)c(Cl)c1 [Example 130, 2-[5-[(2-chloro-4-methylphenyl)methoxy]pyrazol-1-yl]pyridine-4-carboxylic acid]	100 to 1000	100 to 1000	1000 to 10000	–	1000 to 10000	100 to 1000	–
Cc1ccc(COc2ccnn2-c2cc(C(=O)O)ccn2)c(C)c1 [Example 132, 2-[5-[(2,4-dimethylphenyl)methoxy]pyrazol-1-yl]pyridine-4-carboxylic acid]	< 100	< 100	100 to 1000	–	1000 to 10000	100 to 1000	–
COc1cc(C)ccc1COc1ccnn1-c1cc(C(=O)O)ccn1 [Example 133, 2-[5-[(2-methoxy-4-methylphenyl)methoxy]pyrazol-1-yl]pyridine-4-carboxylic acid]	< 100	< 100	100 to 1000	100 to 1000	1000 to 10000	100 to 1000	–
O=C(O)c1ccnc(-n2nccc2OCc2ccc(F)c(OCc3ccc(F)cc3)c2)c1 [Example 139, 2-[5-[[4-fluoro-3-[(4-fluorophenyl)methoxy]phenyl]methoxy]pyrazol-1-yl]pyridine-4-carboxylic acid]	–	–	–	100 to 1000	–	–	–
O=C(O)c1ccnc(-n2nccc2OCc2ccc(Cl)c(OCC3CC3)c2)c1 [Example 140, 2-[5-[[4-chloro-3-(cyclopropylmethoxy)phenyl]methoxy]pyrazol-1-yl]pyridine-4-carboxylic acid]	100 to 1000	100 to 1000	–	–	1000 to 10000	100 to 1000	–
methyl 2-[5-(benzyloxy)-1H-pyrazol-1-yl]pyridine-4-carboxylate [Example 62]	–	–	–	–	–	–	1000 to 10000

Continued, in another order:

IC50 (Jarid1A) [nM]	IC50 (Jarid1B) [nM]	IC50 (JMJD2C) [nM]	IC50 (KDM5A/B; Homo sapiens) [nM]	Molecule	IC50 (FBXL10) [nM]	IC50 (JMJD2A) [nM]	IC50 (KDM5A/B) [nM]
< 100	< 100	–	> 10000	Cn1ncc2ccc(COc3ccnn3-c3cc(C(=O)O)ccn3)cc21 [Example 50, 2-{5-[(1-methyl-1H-indazol-6-yl)methoxy]-1H-pyrazol-1-yl}pyridine-4-carboxylic acid]	100 to 1000	–	–
< 100	< 100	< 100	1000 to 10000	O=C(O)c1ccnc(-n2nccc2OCc2ccc(Cl)c(F)c2)c1 [Example 74, 2-{5-[(4-chloro-3-fluorobenzyl)oxy]-1H-pyrazol-1-yl}pyridine-4-carboxylic acid]	–	–	–
< 100	< 100	100 to 1000	< 100	Cc1cc(Cl)ccc1COc1ccnn1-c1cc(C(=O)O)ccn1 [Example 89, 2-[5-[(4-chloro-2-methylphenyl)methoxy]pyrazol-1-yl]pyridine-4-carboxylic acid]	100 to 1000	–	–
100 to 1000	< 100	–	> 10000	CC1(C)Cc2cccc(COc3ccnn3-c3cc(C(=O)O)ccn3)c2O1 [Example 124, 2-[5-[(2,2-dimethyl-3H-1-benzofuran-7-yl)methoxy]pyrazol-1-yl]pyridine-4-carboxylic acid]	–	–	–
< 100	< 100	100 to 1000	1000 to 10000	Cc1cc(C#N)ccc1COc1ccnn1-c1cc(C(=O)O)ccn1 [Example 125, 2-[5-[(4-cyano-2-methylphenyl)methoxy]pyrazol-1-yl]pyridine-4-carboxylic acid]	–	–	–
1000 to 10000	1000 to 10000	1000 to 10000	–	O=C(O)c1ccnc(-n2nc(-c3ccc(Cl)cc3)cc2O)c1 [Example 158, 2-[3-(4-chlorophenyl)-5-hydroxypyrazol-1-yl]pyridine-4-carboxylic acid]	< 100	1000 to 10000	–
1000 to 10000	1000 to 10000	1000 to 10000	–	O=C(O)c1ccnc(-n2nc(-c3cccc(Cl)c3)cc2O)c1 [Example 159, 2-[3-(3-chlorophenyl)-5-hydroxypyrazol-1-yl]pyridine-4-carboxylic acid]	< 100	> 10000	–
1000 to 10000	100 to 1000	1000 to 10000	–	O=C(O)c1ccnc(-n2nc(C3CCCC3)cc2O)c1 [Example 160, 2-(3-cyclopentyl-5-hydroxypyrazol-1-yl)pyridine-4-carboxylic acid]	< 100	> 10000	–
